We go through 27 compounds from ChEMBL document CHEMBL3808348, “Rational Design, Synthesis, and Biological Evaluation of 7-Azaindole Derivatives as Potent Focused Multi-Targeted Kinase Inhibitors” (J Med Chem, 2016).

Experiment [1] concerns the target Vascular endothelial growth factor receptor 2 (Homo sapiens) (UniProt P35968). Put plainly: Inhibition of full length His-tagged human recombinant VEGFR2 expressed in baculovirus using Fluorescein-Poly GT as substrate at 100 nM.
For experiment [2], the target named is Fibroblast growth factor receptor 2 (Homo sapiens) (UniProt P21802). As to the kind of experiment: Inhibition of His-tagged human recombinant FGFR2 (403 to 822 residues) expressed in baculovirus using Fluorescein-Poly GT as substrate at 100 nM.
Fibroblast growth factor receptor 2 (Homo sapiens), sequence (P21802 22-821 limits assumed): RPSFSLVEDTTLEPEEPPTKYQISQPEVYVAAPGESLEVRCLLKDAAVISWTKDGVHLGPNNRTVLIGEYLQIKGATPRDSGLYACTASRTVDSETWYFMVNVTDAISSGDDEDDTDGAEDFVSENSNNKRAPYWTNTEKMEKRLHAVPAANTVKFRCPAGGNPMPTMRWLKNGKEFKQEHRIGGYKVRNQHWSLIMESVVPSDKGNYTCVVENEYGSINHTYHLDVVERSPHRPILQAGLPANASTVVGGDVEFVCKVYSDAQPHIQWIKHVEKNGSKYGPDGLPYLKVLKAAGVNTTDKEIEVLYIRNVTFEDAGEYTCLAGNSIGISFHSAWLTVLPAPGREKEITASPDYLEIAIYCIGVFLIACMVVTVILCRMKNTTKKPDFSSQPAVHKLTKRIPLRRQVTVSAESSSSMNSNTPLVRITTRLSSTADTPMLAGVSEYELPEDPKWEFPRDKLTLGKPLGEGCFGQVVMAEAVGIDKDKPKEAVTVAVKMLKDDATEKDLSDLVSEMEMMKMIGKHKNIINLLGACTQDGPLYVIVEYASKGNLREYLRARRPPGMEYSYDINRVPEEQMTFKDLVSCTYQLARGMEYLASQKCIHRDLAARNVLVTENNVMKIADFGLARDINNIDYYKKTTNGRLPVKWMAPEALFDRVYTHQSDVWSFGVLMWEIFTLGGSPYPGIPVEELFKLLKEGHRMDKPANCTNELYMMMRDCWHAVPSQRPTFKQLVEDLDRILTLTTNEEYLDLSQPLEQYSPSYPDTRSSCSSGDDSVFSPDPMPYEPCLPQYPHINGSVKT
For experiment [3], the target named is Serine/threonine-protein kinase B-raf (Homo sapiens) (UniProt P15056). As to the kind of experiment: Inhibition of full length GST-tagged human recombinant BRAF expressed in baculovirus using Fluorescein-MAP2K1 as substrate at 100 nM.
Serine/threonine-protein kinase B-raf (Homo sapiens), sequence (P15056 whole entry): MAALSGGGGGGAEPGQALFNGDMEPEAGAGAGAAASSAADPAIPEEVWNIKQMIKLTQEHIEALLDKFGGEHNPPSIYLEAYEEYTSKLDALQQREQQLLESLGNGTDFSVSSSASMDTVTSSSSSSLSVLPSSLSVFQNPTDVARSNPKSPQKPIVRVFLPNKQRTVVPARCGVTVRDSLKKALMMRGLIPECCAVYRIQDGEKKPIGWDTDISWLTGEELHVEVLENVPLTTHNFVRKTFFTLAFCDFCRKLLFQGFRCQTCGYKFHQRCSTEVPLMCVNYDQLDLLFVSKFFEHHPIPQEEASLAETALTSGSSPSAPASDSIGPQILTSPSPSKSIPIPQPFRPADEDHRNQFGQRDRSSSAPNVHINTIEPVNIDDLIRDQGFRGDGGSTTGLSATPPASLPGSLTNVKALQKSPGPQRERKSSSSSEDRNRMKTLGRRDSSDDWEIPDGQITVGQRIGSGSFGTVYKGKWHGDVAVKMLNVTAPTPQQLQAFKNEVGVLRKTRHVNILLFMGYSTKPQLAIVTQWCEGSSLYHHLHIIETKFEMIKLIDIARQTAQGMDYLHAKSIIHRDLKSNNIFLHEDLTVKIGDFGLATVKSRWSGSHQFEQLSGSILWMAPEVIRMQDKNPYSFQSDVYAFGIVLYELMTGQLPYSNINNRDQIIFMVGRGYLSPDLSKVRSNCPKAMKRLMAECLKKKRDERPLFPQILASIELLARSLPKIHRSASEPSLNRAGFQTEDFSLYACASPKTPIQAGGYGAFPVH
Experiment [4] concerns the target Proto-oncogene tyrosine-protein kinase Src (Homo sapiens, UniProt P12931). Put plainly: Inhibition of full length His-tagged human recombinant cSRC expressed in baculovirus using Fluorescein-Poly GT as substrate at 100 nM.
Experiment [5] has as its target Epidermal growth factor receptor (Homo sapiens, UniProt P00533). As to the kind of experiment: Inhibition of GST-tagged human recombinant EGFR (668 to1210 residues) expressed in baculovirus using Fluorescein-Poly GT as substrate at 100 nM.
Experiment [6] deals with Platelet-derived growth factor receptor alpha (Homo sapiens, UniProt P16234). As to the kind of experiment: Inhibition of full length GST-tagged human recombinant PDGFRalpha expressed in baculovirus using Fluorescein-Poly GT as substrate at 100 nM.
Platelet-derived growth factor receptor alpha, sequence (P16234 whole entry): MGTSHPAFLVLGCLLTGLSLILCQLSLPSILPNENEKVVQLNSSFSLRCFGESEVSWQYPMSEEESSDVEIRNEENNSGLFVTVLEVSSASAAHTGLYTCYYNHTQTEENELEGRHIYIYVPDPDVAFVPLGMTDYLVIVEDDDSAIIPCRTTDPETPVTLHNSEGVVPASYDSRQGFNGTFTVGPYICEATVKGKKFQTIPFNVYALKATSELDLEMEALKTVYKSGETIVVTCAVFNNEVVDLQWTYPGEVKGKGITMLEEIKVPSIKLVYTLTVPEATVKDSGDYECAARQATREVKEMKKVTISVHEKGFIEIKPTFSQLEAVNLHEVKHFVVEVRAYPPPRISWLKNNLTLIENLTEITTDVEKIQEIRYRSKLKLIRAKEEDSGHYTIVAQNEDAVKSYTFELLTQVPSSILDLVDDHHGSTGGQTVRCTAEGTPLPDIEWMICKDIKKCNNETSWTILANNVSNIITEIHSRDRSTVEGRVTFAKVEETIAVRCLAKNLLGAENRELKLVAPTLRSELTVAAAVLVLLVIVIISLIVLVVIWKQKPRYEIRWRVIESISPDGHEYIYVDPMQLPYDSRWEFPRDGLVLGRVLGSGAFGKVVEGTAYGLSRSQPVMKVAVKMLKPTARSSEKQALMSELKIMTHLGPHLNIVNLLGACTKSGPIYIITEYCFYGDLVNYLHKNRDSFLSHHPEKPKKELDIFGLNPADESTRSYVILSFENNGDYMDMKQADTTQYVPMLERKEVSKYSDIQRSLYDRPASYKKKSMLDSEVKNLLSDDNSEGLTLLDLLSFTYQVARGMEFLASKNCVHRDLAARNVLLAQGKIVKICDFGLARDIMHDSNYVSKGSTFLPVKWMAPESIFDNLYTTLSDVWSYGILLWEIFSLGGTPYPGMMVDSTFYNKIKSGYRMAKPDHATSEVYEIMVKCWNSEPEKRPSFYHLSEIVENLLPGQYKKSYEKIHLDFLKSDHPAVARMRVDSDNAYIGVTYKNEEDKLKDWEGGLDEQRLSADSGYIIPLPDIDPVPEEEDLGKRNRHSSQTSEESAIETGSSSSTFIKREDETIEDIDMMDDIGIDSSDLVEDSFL

SMILES strings stand for the structures.

As a reminder, the inhibition is the relative decrease from the control value, in per cent.

Vascular endothelial growth factor receptor 2 (Homo sapiens), sequence (P35968 whole entry, the tested form may be a part): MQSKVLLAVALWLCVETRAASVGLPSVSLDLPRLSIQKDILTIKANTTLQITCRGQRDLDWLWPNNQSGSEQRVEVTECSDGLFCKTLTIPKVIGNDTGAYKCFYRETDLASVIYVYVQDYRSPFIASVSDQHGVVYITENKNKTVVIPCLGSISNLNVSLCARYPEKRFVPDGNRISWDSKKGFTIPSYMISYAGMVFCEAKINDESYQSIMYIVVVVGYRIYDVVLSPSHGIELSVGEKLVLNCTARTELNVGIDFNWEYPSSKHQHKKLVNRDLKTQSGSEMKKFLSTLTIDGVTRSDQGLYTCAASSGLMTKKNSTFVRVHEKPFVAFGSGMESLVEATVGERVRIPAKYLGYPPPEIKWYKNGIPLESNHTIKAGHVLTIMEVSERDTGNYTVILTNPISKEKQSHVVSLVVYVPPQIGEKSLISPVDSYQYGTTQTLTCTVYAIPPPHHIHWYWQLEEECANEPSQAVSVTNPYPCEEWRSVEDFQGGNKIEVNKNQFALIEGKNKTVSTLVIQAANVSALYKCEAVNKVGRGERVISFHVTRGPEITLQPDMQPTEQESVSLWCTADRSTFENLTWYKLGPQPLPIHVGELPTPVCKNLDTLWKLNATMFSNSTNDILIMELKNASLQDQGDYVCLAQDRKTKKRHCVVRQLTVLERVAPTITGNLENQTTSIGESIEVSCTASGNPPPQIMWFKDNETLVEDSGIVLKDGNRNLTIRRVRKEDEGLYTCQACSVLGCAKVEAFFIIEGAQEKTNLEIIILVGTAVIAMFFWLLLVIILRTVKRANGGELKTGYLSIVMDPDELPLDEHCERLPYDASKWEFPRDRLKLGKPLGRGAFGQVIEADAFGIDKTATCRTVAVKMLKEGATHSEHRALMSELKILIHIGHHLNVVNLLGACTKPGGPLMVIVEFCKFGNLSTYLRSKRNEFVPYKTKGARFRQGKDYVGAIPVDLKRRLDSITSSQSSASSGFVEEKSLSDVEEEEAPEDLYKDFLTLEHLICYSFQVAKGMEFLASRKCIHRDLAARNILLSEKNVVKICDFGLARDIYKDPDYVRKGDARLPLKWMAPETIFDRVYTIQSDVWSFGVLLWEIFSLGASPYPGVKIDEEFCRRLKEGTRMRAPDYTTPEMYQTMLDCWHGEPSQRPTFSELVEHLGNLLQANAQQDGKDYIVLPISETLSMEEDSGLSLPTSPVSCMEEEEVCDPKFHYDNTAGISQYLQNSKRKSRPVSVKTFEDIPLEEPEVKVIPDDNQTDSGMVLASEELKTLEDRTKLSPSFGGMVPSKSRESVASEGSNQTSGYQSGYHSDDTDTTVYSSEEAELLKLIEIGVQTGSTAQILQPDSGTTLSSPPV
Proto-oncogene tyrosine-protein kinase Src, sequence (P12931 2-536 limits assumed): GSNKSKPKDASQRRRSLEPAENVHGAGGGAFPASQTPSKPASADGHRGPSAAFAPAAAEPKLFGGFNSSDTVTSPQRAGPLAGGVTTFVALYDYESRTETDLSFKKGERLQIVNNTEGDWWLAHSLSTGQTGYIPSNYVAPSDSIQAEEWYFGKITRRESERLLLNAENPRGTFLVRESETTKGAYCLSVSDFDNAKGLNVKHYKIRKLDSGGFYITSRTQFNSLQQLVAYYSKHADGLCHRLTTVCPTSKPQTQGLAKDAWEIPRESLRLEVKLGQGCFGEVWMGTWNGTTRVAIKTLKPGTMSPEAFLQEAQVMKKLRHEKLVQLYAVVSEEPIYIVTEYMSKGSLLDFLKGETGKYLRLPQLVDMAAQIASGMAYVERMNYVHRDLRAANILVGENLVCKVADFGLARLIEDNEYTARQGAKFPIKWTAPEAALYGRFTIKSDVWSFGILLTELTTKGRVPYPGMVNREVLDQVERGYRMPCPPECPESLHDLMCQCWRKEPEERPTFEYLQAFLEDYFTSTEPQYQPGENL

Consider `COC(=O)c1cc2cc(CNc3cc(NC(=O)c4ccc(CN5CCN(C)CC5)cc4)ccc3C)cnc2[nH]1`, for which the inhibition in experiment [1] was found to be 46%; in experiment [2], 8%; in experiment [3] it was 17%; in experiment [4], 47%; in experiment [5] it was 63%; in experiment [6] it was 88%.

Regarding `COC(=O)c1cc2cc(COc3cc(NC(=O)c4ccc(CN5CCN(C)CC5)cc4)ccc3C)cnc2[nH]1`, the inhibition in experiment [1] came to 67%; in experiment [2] it was 14%; in experiment [3] it was 7%; in experiment [4] it was 58%; in experiment [5], 81%; in experiment [6] it was 98%.

As for `COC(=O)c1cc2cc(NCc3cc(NC(=O)c4ccc(O)c(C(F)(F)F)c4)ccc3C)cnc2[nH]1`, the inhibition in experiment [1] was determined as 36%; in experiment [2] it was 3%; in experiment [3], 37%; in experiment [4], 66%; in experiment [5], 53%; in experiment [6], 74%.

On to `COC(=O)c1cc2cc(NCc3cc(NC(=O)c4cccc(C(C)C)c4)ccc3C)cnc2[nH]1`, for which the inhibition in experiment [1] came out at 32%; in experiment [2], 15%; in experiment [3] it was 24%; in experiment [4] it was 99%; in experiment [5], 52%; in experiment [6] it was 61%.

For the compound `Cc1cn(-c2cc(C(=O)Nc3ccc(C)c(CNc4cnc5[nH]c(C(=O)O)cc5c4)c3)cc(C(F)(F)F)c2)cn1`, the inhibition came to 58% in experiment [1]; 49% in experiment [2]; 18% in experiment [3]; 69% in experiment [4]; 91% in experiment [5]; 63% in experiment [6].

Take `COC(=O)c1cc2cc(/C=C/c3cc(NC(=O)c4ccc(CN5CCN(C)CC5)cc4)ccc3C)cnc2[nH]1`: the inhibition turned out to be 51% in experiment [1]; 2% in experiment [2]; 24% in experiment [3]; 40% in experiment [4]; 38% in experiment [5]; 88% in experiment [6].

`COC(=O)c1cc2cc(NCc3cc(NC(=O)c4cccc(OC(F)(F)F)c4)ccc3C)cnc2[nH]1`: the inhibition in experiment [1] came out at 40%; in experiment [2] it was 8%; in experiment [3], 29%; in experiment [4], 105%; in experiment [5], 39%; in experiment [6] it was 66%.

For the compound `CC(=O)c1cc2cc(NCc3cc(NC(=O)c4cc(-n5cnc(C)c5)cc(C(F)(F)F)c4)ccc3C)cnc2[nH]1`, the inhibition came to 24% in experiment [1]; 13% in experiment [2]; 55% in experiment [3]; 59% in experiment [4]; 43% in experiment [5]; 24% in experiment [6].

For `COC(=O)c1cc2cc(NCc3cc(NC(=O)c4cc[nH]c4)ccc3C)cnc2[nH]1`, the inhibition in experiment [1] turned out to be 37%; in experiment [2], 4%; in experiment [3] it was 51%; in experiment [4], 11%; in experiment [5] it was 15%; in experiment [6] it was 71%.

Consider `COC(=O)c1cc2cc(NCc3cc(NC(=O)Cc4ccccc4Br)ccc3C)cnc2[nH]1`, for which the inhibition in experiment [1] is 41%; in experiment [2], 8%; in experiment [3] it was 71%; in experiment [4], 65%; in experiment [5], -1%; in experiment [6], 97%.

With `CC(=O)c1cc2cc(NCc3cc(NC(=O)c4ccc(CN5CCN(C)CC5)cc4)ccc3C)cnc2[nH]1`, the inhibition was determined as 88% in experiment [1]; 5% in experiment [2]; 35% in experiment [3]; 87% in experiment [4]; 99% in experiment [5]; 96% in experiment [6].

As to `COC(=O)c1cc2cc(NCc3cc(NC(=O)c4ccccc4OC)ccc3C)cnc2[nH]1`, the inhibition in experiment [1] was found to be 42%; in experiment [2], 12%; in experiment [3] it was 62%; in experiment [4], 78%; in experiment [5], 16%; in experiment [6] it was 93%.

With `COC(=O)c1cc2cc(NCc3cc(NC(=O)c4ccc(C(F)(F)F)nc4)ccc3C)cnc2[nH]1`, the inhibition in experiment [1] is 0%; in experiment [2], -7%; in experiment [3] it was 50%; in experiment [4], 39%; in experiment [5], 81%; in experiment [6], 76%.

Turning to `Cc1ccc(NC(=O)c2ccc(CN3CCN(C)CC3)cc2)cc1CNc1cnc2[nH]c(C(=O)O)cc2c1`, the inhibition in experiment [1] was 72%; in experiment [2], 14%; in experiment [3], 12%; in experiment [4] it was 75%; in experiment [5] it was 96%; in experiment [6], 79%.

As for `COC(=O)c1cc2cc(NCc3cc(NC(=O)c4ccnc(C(F)(F)F)c4)ccc3C)cnc2[nH]1`, the inhibition in experiment [1] was 13%; in experiment [2], -2%; in experiment [3] it was -7%; in experiment [4] it was 42%; in experiment [5] it was 32%; in experiment [6], 42%.

`COC(=O)c1cc2cc(NCc3cc(NC(=O)c4cc(N(C)C)cc(C(F)(F)F)c4)ccc3C)cnc2[nH]1`: the inhibition in experiment [1] turned out to be 22%; in experiment [2] it was 5%; in experiment [3] it was 14%; in experiment [4], 108%; in experiment [5], 42%; in experiment [6], 42%.

Regarding `COC(=O)c1cc2cc(NCc3cc(NC(=O)Cc4cccc(C(F)(F)F)c4)ccc3C)cnc2[nH]1`, the inhibition is 29% in experiment [1]; 6% in experiment [2]; 61% in experiment [3]; 58% in experiment [4]; 2% in experiment [5]; 87% in experiment [6].

As to `COC(=O)c1cc2cc(NCc3cc(NC(=O)c4ccc(-c5csc(C)n5)cc4)ccc3C)cnc2[nH]1`, the inhibition in experiment [1] is 13%; in experiment [2] it was -1%; in experiment [3], 35%; in experiment [4], 72%; in experiment [5] it was 66%; in experiment [6] it was 74%.

With `COC(=O)c1cc2cc(NCc3cc(NC(=O)c4cccc(C)c4)ccc3C)cnc2[nH]1`, the inhibition was 72% in experiment [1]; 6% in experiment [2]; 74% in experiment [3]; 84% in experiment [4]; 32% in experiment [5]; 87% in experiment [6].

As for `COC(=O)c1cc2cc(NCc3cc(NC(=O)c4cccc(C(F)(F)F)c4)ccc3C)cnc2[nH]1`, the inhibition in experiment [1] amounted to 38%; in experiment [2], 7%; in experiment [3], 39%; in experiment [4], 108%; in experiment [5], 63%; in experiment [6] it was 68%.

Take `COC(=O)c1cc2cc(CCc3cc(NC(=O)c4ccc(CN5CCN(C)CC5)cc4)ccc3C)cnc2[nH]1`: the inhibition in experiment [1] was found to be 98%; in experiment [2], 35%; in experiment [4], 91%; in experiment [5], 98%; in experiment [6], 99%.

For the compound `COC(=O)c1cc2cc(NCc3cc(NC(=O)c4ccc(C)c(C(F)(F)F)c4)ccc3C)cnc2[nH]1`, the inhibition in experiment [1] turned out to be 19%; in experiment [2], 10%; in experiment [3], 16%; in experiment [4] it was 74%; in experiment [5], 64%; in experiment [6] it was 47%.

In the case of `COC(=O)c1cc2cc(NCc3cc(NC(=O)c4ccc5nn[nH]c5c4)ccc3C)cnc2[nH]1`, the inhibition in experiment [1] worked out at 18%; in experiment [2], 4%; in experiment [3], 69%; in experiment [4], 34%; in experiment [5] it was 20%; in experiment [6], 77%.

As for `COC(=O)c1cc2cc(NCc3cc(NC(=O)c4ccc(Cl)c(C(F)(F)F)c4)ccc3C)cnc2[nH]1`, the inhibition in experiment [1] is 9%; in experiment [2], 5%; in experiment [3], 11%; in experiment [4], 86%; in experiment [5], 64%; in experiment [6], 71%.

As for `Cc1ccc(NC(=O)c2ccc(CN3CCC(N(C)C)C3)c(C(F)(F)F)c2)cc1CNc1cnc2[nH]c(C(=O)O)cc2c1` (stereo unspecified), the inhibition in experiment [1] was 80%; in experiment [2], 71%; in experiment [3], 33%; in experiment [4], 86%; in experiment [5] it was 98%; in experiment [6], 66%.

As to `COC(=O)c1cc2cc(/C=C/c3cc(NC(=O)c4ccc(CN5CCC(N(C)C)C5)c(C(F)(F)F)c4)ccc3C)cnc2[nH]1` (stereo unspecified), the inhibition in experiment [1] turned out to be 61%; in experiment [2] it was 38%; in experiment [3], 33%; in experiment [4], 55%; in experiment [5] it was 59%; in experiment [6] it was 68%.

For the compound `COC(=O)c1cc2cc(NCc3cc(NC(=O)c4cccc(Br)c4)ccc3C)cnc2[nH]1`, the inhibition amounted to 59% in experiment [1]; 1% in experiment [2]; 63% in experiment [3]; 85% in experiment [4]; 35% in experiment [5]; 87% in experiment [6].
